We go through 4 compounds from BindingDB's records for doi:10.1021/jm030921v (Uppsala University, 2004).

Numbered stars: 1 amine (or outer) side, 2 acyl side, 3 side chain; on linkers, the order of the positions; unused ones are H or OH. Bridge positions count the residues as written; N and C are the ends. Peptide text beside a SMILES is read from it. CH2 = C([*:1])[*:2] A value given as a limit tells only on which side of the number the result lay.

The experiment addresses Type-2 angiotensin II receptor (Sus scrofa). Put plainly: Binding affinity for Angiotensin II receptor type 2 using [125I]- Ang II in pig uterus myometrium.
For the compound `CC(C)[C@H](NC(=O)[C@H](C)NC(=O)[C@@H](N)CC(=O)O)C(=O)Nc1ccc2c(c1)CN(CC(=O)N[C@@H](Cc1cnc[nH]1)C(=O)N1CCC[C@H]1C(=O)N[C@@H](Cc1ccccc1)C(=O)O)C(=O)[C@H](Cc1ccc(O)cc1)N2` [Angiotensin II analogue], the Ki (in general, a dissociation constant, usually derived from enzyme kinetics or from competition with a known ligand) was more than 10 µM.

As for `CC(C)[C@H](NC(=O)[C@H](CCCNC(=N)N)NC(=O)[C@@H](N)CC(=O)O)C(=O)N[C@@H](Cc1ccc(O)cc1)C(=O)Nc1ccc2c(c1)CN(CC(=O)N[C@@H](Cc1ccccc1)C(=O)O)C(=O)[C@H](Cc1cnc[nH]1)N2` [Angiotensin II analogue], the Ki was more than 10 µM.

For the compound `N=C(N)NCCC[C@H](NC(=O)[C@@H](N)CC(=O)O)C(=O)Nc1ccc2c(c1)CN(CC(=O)N[C@@H](Cc1cnc[nH]1)C(=O)N1CCC[C@H]1C(=O)N[C@@H](Cc1ccccc1)C(=O)O)C(=O)[C@H](Cc1ccc(O)cc1)N2` [Angiotensin II analogue], the Ki is more than 10 µM.

`N=C(N)NCCC[C@H](NC(=O)[C@@H](N)CC(=O)O)C(=O)N[C@H]1CSCSC[C@@H](C(=O)N[C@@H](Cc2cnc[nH]2)C(=O)N2CCC[C@H]2C(=O)N[C@@H](Cc2ccccc2)C(=O)O)NC(=O)[C@H](Cc2ccc(O)cc2)NC1=O` [Angiotensin II analogue] (H-DRCYCHPF-OH; linker 3-5 via CH2) showed a Ki of 0.00062 µM.
